Measurements published in patent publication US20160305970A1, “CELL LINES AND METHODS FOR MAKING AND USING THEM” (Chromocell Corporation, priority 2008, published 2016).
Blank lines part the entries; values can stand above or below the compound they belong to.

Legend:
[1] = tested on: GABAA (α1β3γ2s, α2β3γ2s, α3β3γ2s and α5β3γ2s); assay: In-cell readout assay using halide-sensitive meYFP, GABAA-meYFP-CHO cells; format: cell-based, human; settings: increasing concentrations of GABA ligand
Protocol: The response of GABAA (subunit combinations of α1β3γ2s (A1), α2β3γ2s (A2), α3β3γ2s (A3) and α5β3γ2s (A5)) expressing CHO cells of the invention to test compounds was evaluated using the following protocol for an in-cell readout assay.
Cells were plated 24 hours prior to assay at 10-25,000 cells per well in 384 well plates in growth media (Ham's F-12 media plus FBS and glutamine). […] The assay plates were then loaded on the FDSS (Hamamatsu Corporation). […] The plates were read for 90 seconds.

GABAA α5β3γ2s (α5) = biological target: T1, GABAA α5β3γ2s (α5) (Homo sapiens, UniProt P18507+P28472+P31644); format: cell-based; settings: CHO cell line α5β3γ2s, membrane potential assay
T1 construct: expressed in transfected cells
Protocol: Cells were plated 24 hours prior to assay at 10-25,000 cells per well in 384 well plates in growth media (Ham's F-12 media plus FBS and glutamine). […] Incubation was for 1 hour, followed by plate loading onto the high throughput fluorescent plate reader (Hamamastu FDSS). […] The plates were read for 90 seconds.

human CFTR = assay: Fluorescence membrane potential assay, stable CFTR-expressing CHO cell line; format: cell-based; settings: stable CFTR-expressing cell line, 15,000 cells/well, 384-well plate
Protocol: Populations of cells were tested using functional criteria. Membrane potential dye kits (Molecular Devices, MDS) were used according to manufacturer's instructions. Cells were tested at varying densities in 384-well plates (i.e., 12.5×10^3 to 20×10^3 cells/per well) and responses were analyzed. Time between cell plating and assay read was tested. Dye concentration was also tested. Dose response curves and Z' scores were both calculated as part of the assessment of potential functionality. CHO cell lines stably expressing CFTR were maintained under standard cell culture conditions in Ham's F12 medium supplemented with 10% fetal bovine serum and glutamine. On the day before assay, the cells were harvested from stock plates and plated into black clear-bottom 384 well assay plates. The assay plates were maintained in a 37° C. cell culture incubator under 5% CO2 for 22-24 hours. […] For forskolin dose-response experiments, cells of the produced stable CFTR-expressing cell lines, plated at a density of 15,000 cells/well in a 384-well plate were challenged with increasing concentration of forskolin, a known CFTR agonist. The cellular response as a function of changes in cell fluorescence was monitored over time by a fluorescent plate reader (Hamamatsu FDSS). […]-1742 (2001)), indicating the potency of the clone.

[2] = biological target: human GC-C (guanylate cyclase 2C, GUCY2C) (human) (UniProt P25092); assay: cell-based or functional assay
Sequence of human GC-C (guanylate cyclase 2C, GUCY2C) (human) (P25092 24-1073): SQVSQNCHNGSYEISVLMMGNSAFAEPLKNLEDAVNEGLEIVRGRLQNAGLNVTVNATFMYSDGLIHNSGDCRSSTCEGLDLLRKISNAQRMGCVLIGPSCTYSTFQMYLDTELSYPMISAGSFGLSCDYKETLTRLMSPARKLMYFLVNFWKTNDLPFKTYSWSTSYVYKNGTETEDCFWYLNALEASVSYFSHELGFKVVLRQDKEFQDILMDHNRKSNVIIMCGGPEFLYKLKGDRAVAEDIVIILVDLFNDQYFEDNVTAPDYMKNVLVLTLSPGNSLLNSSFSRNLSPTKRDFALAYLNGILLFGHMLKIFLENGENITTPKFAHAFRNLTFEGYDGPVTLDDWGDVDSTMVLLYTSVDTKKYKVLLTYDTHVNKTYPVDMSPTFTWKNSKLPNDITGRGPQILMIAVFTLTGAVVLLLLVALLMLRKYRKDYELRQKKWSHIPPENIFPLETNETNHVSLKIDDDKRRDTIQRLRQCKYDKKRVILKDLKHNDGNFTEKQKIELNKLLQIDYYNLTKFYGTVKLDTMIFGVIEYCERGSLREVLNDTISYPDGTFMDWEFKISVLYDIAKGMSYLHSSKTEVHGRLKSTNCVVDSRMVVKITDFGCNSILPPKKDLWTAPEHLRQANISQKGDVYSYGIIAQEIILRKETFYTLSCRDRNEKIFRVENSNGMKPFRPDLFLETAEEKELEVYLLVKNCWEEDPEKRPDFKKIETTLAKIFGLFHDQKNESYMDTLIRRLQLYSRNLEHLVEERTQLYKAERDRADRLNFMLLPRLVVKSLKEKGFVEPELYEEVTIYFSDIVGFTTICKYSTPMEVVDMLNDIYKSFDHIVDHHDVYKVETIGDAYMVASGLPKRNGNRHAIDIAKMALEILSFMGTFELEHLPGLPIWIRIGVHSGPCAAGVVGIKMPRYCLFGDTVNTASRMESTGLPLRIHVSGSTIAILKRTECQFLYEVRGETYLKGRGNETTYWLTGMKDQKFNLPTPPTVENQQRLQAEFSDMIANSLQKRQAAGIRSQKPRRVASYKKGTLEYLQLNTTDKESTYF

T1 sequence (P31644 32-462): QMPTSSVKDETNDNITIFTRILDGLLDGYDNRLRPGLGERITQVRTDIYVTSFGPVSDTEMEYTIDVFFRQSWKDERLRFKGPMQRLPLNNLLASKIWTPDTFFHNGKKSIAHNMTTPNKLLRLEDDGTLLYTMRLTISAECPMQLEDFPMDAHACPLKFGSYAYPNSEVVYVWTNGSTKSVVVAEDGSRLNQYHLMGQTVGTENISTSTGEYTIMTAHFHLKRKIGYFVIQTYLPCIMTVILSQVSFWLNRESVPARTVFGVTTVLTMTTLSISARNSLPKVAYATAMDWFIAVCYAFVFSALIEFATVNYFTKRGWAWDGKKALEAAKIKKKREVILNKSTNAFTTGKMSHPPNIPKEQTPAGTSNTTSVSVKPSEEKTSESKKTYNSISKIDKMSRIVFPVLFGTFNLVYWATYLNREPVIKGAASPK
T1 sequence (P28472 26-473): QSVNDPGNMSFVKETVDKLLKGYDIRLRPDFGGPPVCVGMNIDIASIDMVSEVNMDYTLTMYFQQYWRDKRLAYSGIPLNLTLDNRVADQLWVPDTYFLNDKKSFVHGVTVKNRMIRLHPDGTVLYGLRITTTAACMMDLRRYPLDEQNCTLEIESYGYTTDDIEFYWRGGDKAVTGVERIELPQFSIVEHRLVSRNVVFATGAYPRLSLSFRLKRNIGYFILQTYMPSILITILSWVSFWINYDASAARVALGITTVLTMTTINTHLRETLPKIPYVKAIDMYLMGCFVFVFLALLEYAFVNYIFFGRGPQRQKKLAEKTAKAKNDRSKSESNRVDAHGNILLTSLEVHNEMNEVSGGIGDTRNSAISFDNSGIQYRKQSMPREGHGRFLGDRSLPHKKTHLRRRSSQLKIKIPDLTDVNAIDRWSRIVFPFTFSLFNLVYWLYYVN
T1 sequence (P18507 40-467 isoform P18507-1 limits assumed): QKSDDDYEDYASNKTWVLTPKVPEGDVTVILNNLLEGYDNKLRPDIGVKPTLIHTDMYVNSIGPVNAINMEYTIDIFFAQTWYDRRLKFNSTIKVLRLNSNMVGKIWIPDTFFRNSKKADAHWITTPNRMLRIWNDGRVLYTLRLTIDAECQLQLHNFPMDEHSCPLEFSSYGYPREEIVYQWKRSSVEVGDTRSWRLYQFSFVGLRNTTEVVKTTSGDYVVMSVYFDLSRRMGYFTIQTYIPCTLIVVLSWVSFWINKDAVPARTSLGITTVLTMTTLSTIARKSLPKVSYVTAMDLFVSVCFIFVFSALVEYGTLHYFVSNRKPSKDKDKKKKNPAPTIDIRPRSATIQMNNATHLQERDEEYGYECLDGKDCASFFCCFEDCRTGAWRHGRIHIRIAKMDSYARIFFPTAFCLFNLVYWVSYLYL

Compound: NCCCC(=O)O [GABA]
meYFP signal response [1]: increasing quench of meYFP signal

Compound: COc1cc(/C=C(\C#N)C(=O)c2ccc(O)c(O)c2)cc(I)c1O [I-OMe Tyrphostin 538]
EC50 Values α5 (GABAA α5β3γ2s (α5)): α5 Not active

EC50 (human CFTR): 256 nM
Compound: C=C[C@@]1(C)CC(=O)[C@]2(O)[C@@]3(C)[C@@H](O)CCC(C)(C)[C@@H]3[C@H](O)[C@H](OC(C)=O)[C@@]2(C)O1 [forskolin]

EC50 of the cellular response (absorbance as a function of changes in cGMP levels, Direct Cyclic GMP Enzyme Immunoassay Kit) to increasing guanylin [2]: 1.1 nM | level of cGMP [2]: 6 pmol/mL
Compound: guanylin (peptide)
